US9969771B2, “Tetrapeptide having effect of inhibiting VEGF-induced angiogenesis and use thereof” (AVIXGEN INC., priority 2015, dated 2018)
Entries after “also recorded” stand apart in the source; their conditions may differ. Where a SMILES comes first, the peptide text is derived from it.

Assays:
HUVECs [1] = assay: VEGF-induced HUVEC proliferation, [3H]-thymidine incorporation assay; format: cell-based, human
Description: Human umbilical vein endothelial cells (HUVECs) were cultured in M199 medium, and during experiments, the cells were always used at passages 2 to 7. Meanwhile, mouse melanoma cells (B16F1 and B16F10) and human colorectal tumor cells (HCT116) were cultured in RPMI media supplemented with 10% FBS, 1 mM sodium pyruvate, 10 mM 4-(2-hydroxyethyl)-1-piperazineethanesulfonic acid and 100 U/ml penicillin-streptomycin, and human multiple myeloma cells (IM-9 and RPMI 8226) were cultured in RPMI-1640 media. All of the cells were cultured at 37° C. with 5% CO2 in a humidified incubator.
Angiogenic activity was determined by measuring cell proliferation, migration and tube formation. HUVEC proliferation was analyzed by a [3H]-thymidine incorporation assay. The HUVECs were seeded in a 24-well plate coated with gelatin at a density of 2×10^4 cells/well. […] […] […] 3H-labeled polymer DNA was evaluated with a liquid scintillation counter.

HUVECs [2] = assay: HUVEC tube formation on Matrigel; format: cell-based, human
Description: Tube formation of HUVECs was examined using growth factor-reduced Matrigel (hereinafter, referred to as “Matrigel”). 250 μl of Matrigel (10 mg protein/ml) was placed in a 24-well plate to allow polymerization for 30 minutes at 37° C. […] The tube formation was examined under a reverse phase-contrast microscope, and visualized with Image-Pro Plus version 4.5 (Media Cybernetics, San Diego, Calif.). Five samples were randomly selected to measure and quantify a length of the tube formed above.

zebrafish = assay: Zebrafish angiogenesis assay; format: in vivo; conditions: zebrafish embryo
Description: An adult zebrafish and an embryo were grown and maintained in a standard laboratory environment, and a zebrafish experiment was conducted according to the protocols approved by the animal ethics committee of Chungnam National University. To analyze angiogenesis, at 48 hours post fertilization (hpf), the embryo was anesthetized with tricaine (MS-222, 0.02%, embryo buffer), a peptide was administered, and FITC-dextran (2,000 kDa, Sigma) was further injected. A blood vessel image was obtained with a Leica DM5000B system at 72 hpf. As a probe for whole mount in situ hybridization, digoxigenin (DIG)-labeled RNA prepared by a cad5 (NM_001003983) gene was used. Meanwhile, a peptide was injected into the 18-hpf embryo collected at 25 hpf, fixed with 4% paraformaldehyde, washed with PBS (in 0.1% Tween20), and hybridized with DIG-labeled riboprobes (hybridization buffer). Subsequently, the resulting product was reacted with an alkaline phosphatase (AP)-conjugated anti-DIG antibody. Following reaction with an AP staining solution, a staining status was observed and visualized under a microscope (Leica, MZ-16).

aortic ring = assay: Aortic ring sprouting assay (ex vivo); parameters: species or system Sprague-Dawley rat; conditions: RLYE 0.3 nM, VEGF 20 ng/ml
Description: An aortic ring sprouting assay was performed by a method modified based on previous research. A 1-mm-thick aortic ring prepared from a Sprague-Dawley rat (7-week-old male) was placed in a 96-well plate coated with 120 μl of Matrigel, sealed with 50 μl of Matrigel, and incubated with RLYE (SEQ ID NO: 2) (0.3 nM) or VEGF (20 ng/ml) in a total of 200 μl of a serum-free medium. Blood vessels newly formed at day 6 were fixed, microvascular formation was observed under a phase-contrast microscope, and angiogenesis was quantified with Image Jsoftware available at NIH website, rsb.info.nih.gov/ij.

[3] = tested on: chick chorioallantoic membrane (CAM); assay: Chick chorioallantoic membrane (CAM) analysis; format: in vivo; conditions: RLYE 0.75 nM, VEGF 50 ng/ml
Description: For a chick chorioallantoic membrane (CAM) analysis, fertilized eggs were incubated for 3 days, and a window was made in the same manner as used in the previous research (18). The window (with a diameter of about 3 cm) was made by removing a shell and an inner layer of the shell, and the exposed part was sealed with cellophane tape. The eggs were stood upright at 37° C. in an incubator (with a humidity of 55 to 60%) and were incubated for 3 days. A Thermanox disc containing 10 μl of a salt-free solution containing RLYE (SEQ ID NO: 2) (0.75 nM) alone or in combination with VEGF (50 ng/ml) was gently placed on a CAM that had been incubated for 10 days. After 72-hour incubation, blood vessels formed above were stained by injecting 1 ml of a 10% intralipose (fat emulsion) solution right under the CAM. The stained blood vessels were photographed using a Nikon digital camera, and the number of blood vessels newly formed around the disc was counted.

Src = assay: Western blot, Src phosphorylation in VEGF-A-stimulated HUVECs; format: cell-based, human; conditions: HUVECs stimulated with VEGF-A
Description: Cells were lyzed in RIPA buffer, and 50 μg of proteins were isolated by SDS-PAGE and then transferred to a PVDF membrane. The membrane was reacted with an antibody with respect to a target protein for 2 hours. The membrane was washed twice and reacted with a horseradish peroxidase-conjugated antibody, and then an amount of the target proteins was assessed with an enhanced chemiluminescence system.

VEGFR-1 = target: T1, VEGFR-1 (Homo sapiens, UniProt P17948); assay: VEGFR pull-down assay using biotin-labeled RLYE, VEGFR-1; format: binding; conditions: HUVEC lysate
T1 construct: endogenous in cells; host or cells: HUVEC lysate
Description: HUVECs were lysed in a pull-down buffer [50 mM Tris-HCl (pH 8.0), 150 mM sodium chloride, 1.0% NP-40, 0.5% sodium deoxycholate and 0.1% SDS]. A lysate ([…] of proteins) was reacted with biotin-labeled RLYE (SEQ ID NO: 2) (0.15 or 1.5 nM) for 1 hour, and reacted with streptavidin-agarose beads ([…]) at 4° C. for 1 hour. RLYE (SEQ ID NO: 2)-binding proteins were isolated from the cell lysate through centrifugation, washed, and then boiled for 10 minutes. The bead-binding proteins were isolated by SDS-PAGE, and immunoblotting was performed with an antibody with respect to VEGFR-2 or VEGFR-1.

[4] = tested on: B16F1 mouse melanoma cells; assay: Mouse melanoma (B16F1) animal model; format: in vivo, C57BL/6J mouse; conditions: 1 mg/kg per day peritoneally
Description: 100 μl each of 2×10^6 B16F1 mouse melanoma cells and 1×10^7 HCT116 human colorectal tumor cells were subcutaneously injected into the left side of a C57BL/6J mouse and a nude mouse. After a tumor volume reached at least 50 to 70 mm3 (taking about 7 days), saline or RLYE (SEQ ID NO: 2) (0.5 or 1.0 mg/kg) was peritoneally injected daily into the mice. A tumor size was two-dimensionally measured with calipers. A tumor volume (mm3) was calculated by a formula of […]. Following homogenization of tumor tissue with PBS and centrifugation (at 12,000×g for 5 min), a hemoglobin-containing supernatant was extracted to be used in analysis with Drabkin's reagent (Sigma). A hemoglobin level was measured by a cyanmethemoglobin method, and the amount of hemoglobin per gram of the tumor was calculated.

T1 sequence (P17948 27-1338): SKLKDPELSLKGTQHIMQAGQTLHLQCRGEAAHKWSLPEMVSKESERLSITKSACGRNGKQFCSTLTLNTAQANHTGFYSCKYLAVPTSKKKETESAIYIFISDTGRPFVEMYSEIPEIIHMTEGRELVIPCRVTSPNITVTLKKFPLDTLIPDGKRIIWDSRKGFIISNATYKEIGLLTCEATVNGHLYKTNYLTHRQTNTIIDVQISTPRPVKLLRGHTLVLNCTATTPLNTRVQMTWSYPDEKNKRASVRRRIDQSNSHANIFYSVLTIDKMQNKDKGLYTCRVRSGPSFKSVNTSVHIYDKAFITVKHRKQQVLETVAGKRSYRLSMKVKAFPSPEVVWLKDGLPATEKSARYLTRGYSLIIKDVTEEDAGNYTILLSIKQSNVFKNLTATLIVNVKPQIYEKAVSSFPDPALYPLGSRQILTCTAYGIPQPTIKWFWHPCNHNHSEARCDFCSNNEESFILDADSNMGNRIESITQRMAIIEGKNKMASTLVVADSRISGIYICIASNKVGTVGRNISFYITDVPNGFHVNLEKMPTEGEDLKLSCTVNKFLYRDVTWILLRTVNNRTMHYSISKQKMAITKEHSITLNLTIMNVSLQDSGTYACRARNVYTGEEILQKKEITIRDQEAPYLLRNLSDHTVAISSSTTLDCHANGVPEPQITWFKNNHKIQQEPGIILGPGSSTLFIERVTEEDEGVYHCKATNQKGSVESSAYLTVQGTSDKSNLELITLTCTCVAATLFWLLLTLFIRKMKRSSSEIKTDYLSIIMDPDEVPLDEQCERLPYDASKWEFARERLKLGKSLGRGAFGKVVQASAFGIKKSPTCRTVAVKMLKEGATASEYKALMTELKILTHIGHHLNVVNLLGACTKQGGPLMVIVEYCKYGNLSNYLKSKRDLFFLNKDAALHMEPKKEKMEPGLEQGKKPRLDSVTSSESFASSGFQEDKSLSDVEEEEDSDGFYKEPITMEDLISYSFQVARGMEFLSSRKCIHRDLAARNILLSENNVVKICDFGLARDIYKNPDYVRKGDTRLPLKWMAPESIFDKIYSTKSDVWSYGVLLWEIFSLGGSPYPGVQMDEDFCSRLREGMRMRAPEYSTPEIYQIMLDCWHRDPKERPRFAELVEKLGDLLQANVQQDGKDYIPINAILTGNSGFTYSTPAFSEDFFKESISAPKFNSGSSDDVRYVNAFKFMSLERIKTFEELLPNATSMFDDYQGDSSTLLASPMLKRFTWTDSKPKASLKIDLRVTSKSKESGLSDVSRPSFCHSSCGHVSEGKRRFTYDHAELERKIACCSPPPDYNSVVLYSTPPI

## CC(C)C[C@H](NC(=O)[C@@H](N)CCCNC(=N)N)C(=O)N[C@@H](Cc1ccc(O)cc1)C(=O)N[C@@H](CCC(=O)O)C(=O)O [RLYE] (H-RLYE-OH; N-terminus and C-terminus assumed)
HUVECs [1]; VEGF 10 ng/ml, [3H]-thymidine incorporation
  inhibition of VEGF-induced HUVEC proliferation: effectively inhibited
HUVECs [1]; versus KLYD
  IC50 lower than that of the control KLYD (HUVEC proliferation): 10 fold
HUVECs [2]; HUVECs, peptide 0.15 nM, VEGF 10 ng/ml
  inhibition of VEGF-induced tube formation: effectively regulated; also recorded: much higher inhibitory effect on the tube formation than KLYD; also recorded: effectively inhibited
HUVECs [2]; bFGF stimulated
  bFGF-induced tube formation of HUVECs: did not inhibit
zebrafish
  formation of intersegmental vessels (ISV): obviously inhibited
  formation of subintestinal vessels (SIV): considerably inhibited
Aortic ring
  VEGF-A-induced angiogenesis at the edge of the aortic ring: significantly inhibited
[3]
  VEGF-A-induced blood vessel density in CAM: considerable reduction
Src
  phosphorylation of Src: inhibited
VEGFR-1
  binding to VEGFR-1 (pull-down): does not bind to VEGFR-1
[4]
  tumor growth: significantly decreased
  tumor size: significantly decreased
  tumor weight: significantly decreased
